Measurements reported in patent publication US20100099561A1, “HETEROBICYCLIC ALKYLTHIO-BRIDGED ISOXAZOLINES” (E.I. DU PONT DE NEMOURS AND COMPANY, priority 2008, published 2010).

Tests used:
Type in all cases: in vivo
[1] = tested on: barnyardgrass (Echinochloa crus-galli); assay: Test B flooded paddy test, barnyardgrass; details: Flood
Outline: (§1)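 2-leaf plants; pots flooded 3 cm above soil; compound added to paddy water; depth maintained. Greenhouse 13–15 d. Visual rating vs controls, 0 (no effect) to 100 (complete control); dash = no result.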

[2] = tested on: large crabgrass (Digitaria sanguinalis); assay: Test A preemergence, large crabgrass; details: 0 to 100 scale (0 no effect, 100 complete control)
Outline: (§2)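 Sow seeds in loam–sand blend; spray soil directly (pre) and treat emerged one- to two-leaf plants 2–10 cm tall (post) with compound in surfactant-containing non-phytotoxic solvent. Keep in greenhouse about ten days. Score injury visually against controls from 0 to 100.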

[3] = tested on: ducksalad (Heteranthera limosa); assay: Test B flooded paddy test, ducksalad; details: Flood, scale 0 to 100
Outline: as §1

[4] = tested on: corn (Zea mays); assay: Test A postemergence, corn; details: 0 to 100 scale (0 no effect, 100 complete control)
Outline: as §2

[5] = tested on: morningglory (Ipomoea spp.); assay: Test A postemergence, morningglory; details: 0 to 100 scale (0 no effect, 100 complete control)
Outline: as §2

[6] = tested on: giant foxtail (Setaria faberi); assay: Test A preemergence, giant foxtail; details: 0 to 100 scale (0 no effect, 100 complete control)
Outline: as §2

[7] = tested on: corn (Zea mays); assay: Test A preemergence, corn; details: 0 to 100 scale (0 no effect, 100 complete control)
Outline: as §2

[8] = tested on: wheat (Triticum aestivum); assay: Test A preemergence, wheat; details: 0 to 100 scale (0 no effect, 100 complete control)
Outline: as §2

[9] = tested on: morningglory (Ipomoea spp.); assay: Test A preemergence, morningglory; details: 0 to 100 scale (0 no effect, 100 complete control)
Outline: as §2

[10] = tested on: large crabgrass (Digitaria sanguinalis); assay: Test A postemergence, large crabgrass; details: 0 to 100 scale (0 no effect, 100 complete control)
Outline: as §2

[11] = tested on: pigweed (Amaranthus retroflexus); assay: Test A postemergence, pigweed; details: 0 to 100 scale (0 no effect, 100 complete control)
Outline: as §2

[12] = tested on: umbrella sedge (Cyperus difformis); assay: Test B flooded paddy test, umbrella sedge; details: Flood, scale 0 to 100
Outline: as §1

[13] = tested on: rice (Oryza sativa); assay: Test B flooded paddy test, rice; details: Flood, scale 0 to 100
Outline: as §1

[14] = tested on: barnyardgrass (Echinochloa crus-galli); assay: Test A preemergence, barnyardgrass; details: 0 to 100 scale (0 no effect, 100 complete control)
Outline: as §2

[15] = tested on: giant foxtail (Setaria faberi); assay: Test A postemergence, giant foxtail; details: 0 to 100 scale (0 no effect, 100 complete control)
Outline: as §2

[16] = tested on: velvetleaf (Abutilon theophrasti); assay: Test A postemergence, velvetleaf; details: 0 to 100 scale (0 no effect, 100 complete control)
Outline: as §2

[17] = tested on: pigweed (Amaranthus retroflexus); assay: Test A preemergence, pigweed; details: 0 to 100 scale (0 no effect, 100 complete control)
Outline: as §2

[18] = tested on: wheat (Triticum aestivum); assay: Test A postemergence, wheat; details: 0 to 100 scale (0 no effect, 100 complete control)
Outline: as §2

[19] = tested on: velvetleaf (Abutilon theophrasti); assay: Test A preemergence, velvetleaf; details: 0 to 100 scale (0 no effect, 100 complete control)
Outline: as §2

[20] = tested on: barnyardgrass (Echinochloa crus-galli); assay: Test A postemergence, barnyardgrass; details: 0 to 100 scale (0 no effect, 100 complete control)
Outline: as §2

CC1(C)CC(S(=O)(=O)Cc2c(C(F)(F)F)nc3n(c2=O)CCCCC3)=NO1 [Compound 33]
60: Plant response rating, Morningglory ([5]; 500 g ai/ha) | Plant response rating, Sedge, Umbrella ([12]; 125 g ai/ha) | Plant response rating, Velvetleaf ([19]; 500 g ai/ha)
70: Plant response rating, Foxtail, Giant ([15]; 125 g ai/ha)
90: Plant response rating, Crabgrass, Large ([2]; 125 g ai/ha) | Plant response rating, Foxtail, Giant ([6]; 125 g ai/ha) | Plant response rating, Barnyardgrass ([14]; 500 g ai/ha)
25: Plant response rating, Rice ([13]; 250 g ai/ha)
0: Plant response rating, Barnyardgrass ([1]; 31 g ai/ha, scale 0 to 100) | Plant response rating, Barnyardgrass ([1]; 62 g ai/ha, scale 0 to 100) | Plant response rating, Barnyardgrass ([1]; 125 g ai/ha, scale 0 to 100) | Plant response rating, Ducksalad ([3]; 31 g ai/ha) | Plant response rating, Ducksalad ([3]; 62 g ai/ha) | Plant response rating, Corn ([4]; 125 g ai/ha) | Plant response rating, Corn ([4]; 500 g ai/ha) | Plant response rating, Corn ([7]; 125 g ai/ha) | Plant response rating, Corn ([7]; 500 g ai/ha) | Plant response rating, Wheat ([8]; 125 g ai/ha) | Plant response rating, Sedge, Umbrella ([12]; 31 g ai/ha) | Plant response rating, Rice ([13]; 31 g ai/ha) | Plant response rating, Rice ([13]; 62 g ai/ha) | Plant response rating, Rice ([13]; 125 g ai/ha) | Plant response rating, Velvetleaf ([16]; 125 g ai/ha) | Plant response rating, Wheat ([18]; 125 g ai/ha)
35: Plant response rating, Barnyardgrass ([1]; 250 g ai/ha, scale 0 to 100 (0 no effect, 100 complete control))
100: Plant response rating, Crabgrass, Large ([2]; 500 g ai/ha) | Plant response rating, Foxtail, Giant ([6]; 500 g ai/ha) | Plant response rating, Pigweed ([17]; 500 g ai/ha)
40: Plant response rating, Morningglory ([5]; 125 g ai/ha) | Plant response rating, Barnyardgrass ([14]; 125 g ai/ha) | Plant response rating, Wheat ([18]; 500 g ai/ha)
80: Plant response rating, Crabgrass, Large ([10]; 500 g ai/ha) | Plant response rating, Sedge, Umbrella ([12]; 250 g ai/ha) | Plant response rating, Foxtail, Giant ([15]; 500 g ai/ha) | Plant response rating, Barnyardgrass ([20]; 500 g ai/ha)
30: Plant response rating, Velvetleaf ([19]; 125 g ai/ha)
10: Plant response rating, Pigweed ([17]; 125 g ai/ha)
20: Plant response rating, Ducksalad ([3]; 125 g ai/ha) | Plant response rating, Morningglory ([9]; 125 g ai/ha) | Plant response rating, Pigweed ([11]; 125 g ai/ha) | Plant response rating, Sedge, Umbrella ([12]; 62 g ai/ha) | Plant response rating, Velvetleaf ([16]; 500 g ai/ha)
50: Plant response rating, Ducksalad ([3]; 250 g ai/ha) | Plant response rating, Wheat ([8]; 500 g ai/ha) | Plant response rating, Morningglory ([9]; 500 g ai/ha) | Plant response rating, Crabgrass, Large ([10]; 125 g ai/ha) | Plant response rating, Pigweed ([11]; 500 g ai/ha) | Plant response rating, Barnyardgrass ([20]; 125 g ai/ha)
